Results published in article PMC11238318 (ACS Omega, 2024).

Target: Pyruvate dehydrogenase kinase 3 (PDK3) (Homo sapiens, UniProt Q15120)
Assay: intrinsic Trp fluorescence quenching of purified PDK3
Assay type: binding

Pyruvate dehydrogenase kinase 3 (PDK3), sequence (Q15120 whole entry): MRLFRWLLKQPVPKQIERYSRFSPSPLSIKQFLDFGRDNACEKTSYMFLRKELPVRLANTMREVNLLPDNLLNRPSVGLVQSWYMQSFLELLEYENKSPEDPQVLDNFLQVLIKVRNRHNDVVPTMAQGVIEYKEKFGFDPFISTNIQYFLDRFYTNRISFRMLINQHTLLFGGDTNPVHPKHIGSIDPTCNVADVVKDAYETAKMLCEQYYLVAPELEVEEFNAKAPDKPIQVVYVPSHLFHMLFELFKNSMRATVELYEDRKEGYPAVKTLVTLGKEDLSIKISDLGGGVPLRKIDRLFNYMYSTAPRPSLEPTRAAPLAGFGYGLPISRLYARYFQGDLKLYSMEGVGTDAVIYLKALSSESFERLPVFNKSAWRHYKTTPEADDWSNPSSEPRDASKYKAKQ

- Kd: 8.77 µM
Structure (SMILES): O=c1c(O)c(-c2cc(O)c(O)c(O)c2)oc2cc(O)cc(O)c12 [MT, Myricetin]
